Experimental data: PubChem BioAssay AID2060903 (Molecular Pharmacology Branch, DTP, NCI, 2025)
pIC50: −log10 of the molar value.

Tested on: 377384-186-R-J1-PDC complex spheroid viability
Test: Anticancer human tumor 377384-186-R-J1-PDC patient-derived pancreatic carcinoma cell line growth inhibition [RAS]
Settings: for pIC50: curve of first compound; for viability, T/C: stronger effect = lower value; active means viability on the fitted dose curve at most 10% of control; inactive means the rest
In short: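 Multi-cell-type spheroids: tumor cells plus HUVEC endothelial cells and mesenchymal stem cells. RAS-pathway inhibitors were combined with targeted agents, each dosed in half-log steps down from clinical Cmax, or from 10 microM when Cmax was unknown.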

[1] = second compound 0.00316 µM, first compound 0.0316 µM
[2] = second compound 0.00316 µM, first compound 0.1 µM
[3] = second compound 0.00316 µM, first compound 0.316 µM
[4] = second compound 0.00316 µM, first compound 1 µM
[5] = second compound 0.01 µM, first compound 0.0316 µM
[6] = second compound 0.01 µM, first compound 0.1 µM
[7] = second compound 0.01 µM, first compound 0.316 µM
[8] = second compound 0.01 µM, first compound 1 µM
[9] = second compound 0.0316 µM, first compound 0.0316 µM
[10] = second compound 0.0316 µM, first compound 0.1 µM
[11] = second compound 0.0316 µM, first compound 0.316 µM
[12] = second compound 0.0316 µM, first compound 1 µM
[13] = second compound 0.1 µM, first compound 0.0316 µM
[14] = second compound 0.1 µM, first compound 0.1 µM
[15] = second compound 0.1 µM, first compound 0.316 µM
[16] = second compound 0.1 µM, first compound 1 µM
[17] = second compound 0.316 µM, first compound 0.0316 µM
[18] = second compound 0.316 µM, first compound 0.1 µM
[19] = second compound 0.316 µM, first compound 0.316 µM
[20] = second compound 0.316 µM, first compound 1 µM
[21] = second compound 1 µM, first compound 0.0316 µM
[22] = second compound 1 µM, first compound 0.1 µM
[23] = second compound 1 µM, first compound 0.316 µM
[24] = second compound 1 µM, first compound 1 µM
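Further: spheroids exposed to compounds for seven days before readout.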

CC(Nc1ccc2c(c1)OCCn1cc(N3C(=O)OCC3C(F)F)nc1-2)C(N)=O (centres undefined) + C=CC(=O)N1CCN(c2nc(OCC3CCCN3C)nc3c(F)c(-c4nc(N)cc(C)c4C(F)(F)F)c(Cl)cc23)C(C)C1
6.59: pIC50 (second compound 0.316 µM)
6.35: pIC50 (second compound 0.0316 µM)
6.19: pIC50 (second compound 1 µM)
inactive: viability, T/C [1] 73.4% | viability, T/C [2] 72.2% | viability, T/C [3] 52.8% | viability, T/C [4] 48.1% | viability, T/C (second compound 0.00316 µM, first compound 3.16 µM) 38.4% | viability, T/C (second compound 0.00316 µM, first compound 10 µM) 28.4% | viability, T/C [5] 76.8% | viability, T/C [6] 63.5% | viability, T/C [7] 54.8% | viability, T/C [8] 46.6% | viability, T/C (second compound 0.01 µM, first compound 3.16 µM) 37.9% | viability, T/C (second compound 0.01 µM, first compound 10 µM) 32.8% | viability, T/C [9] 86.2% | viability, T/C [10] 68.2% | viability, T/C [11] 55.7% | viability, T/C [12] 40.3% | viability, T/C (second compound 0.0316 µM, first compound 3.16 µM) 34.2% | viability, T/C (second compound 0.0316 µM, first compound 10 µM) 32.1% | viability, T/C [13] 78.9% | viability, T/C [14] 73.3% | viability, T/C [15] 60.5% | viability, T/C [16] 45% | viability, T/C (second compound 0.1 µM, first compound 3.16 µM) 40.1% | viability, T/C (second compound 0.1 µM, first compound 10 µM) 30.6% | viability, T/C [17] 89.7% | viability, T/C [18] 63% | viability, T/C [19] 43.2% | viability, T/C [20] 44.8% | viability, T/C (second compound 0.316 µM, first compound 3.16 µM) 33.5% | viability, T/C (second compound 0.316 µM, first compound 10 µM) 32% | viability, T/C [21] 79.2% | viability, T/C [22] 68.2% | viability, T/C [23] 53.5% | viability, T/C [24] 48.4% | viability, T/C (second compound 1 µM, first compound 3.16 µM) 38% | viability, T/C (second compound 1 µM, first compound 10 µM) 32.2%
6.13: pIC50 (second compound 0.00316 µM)
6.24: pIC50 (second compound 0.01 µM)
6.11: pIC50 (second compound 0.1 µM)

O=C(c1ccc(F)c(F)c1Nc1ccc(I)cc1F)N1CC(O)([C@@H]2CCCCN2)C1 + C=CC(=O)N1CCN(c2nc(OCC3CCCN3C)nc3c(F)c(-c4nc(N)cc(C)c4C(F)(F)F)c(Cl)cc23)C(C)C1
7.35: pIC50 (second compound 1 µM)
active: viability, T/C [3] 3.06% | viability, T/C [4] 0.45% | viability, T/C [7] 2.14% | viability, T/C [8] 0.43% | viability, T/C [11] 2.38% | viability, T/C [12] 0.3% | viability, T/C [15] 2.8% | viability, T/C [16] 0.78% | viability, T/C [19] 2.78% | viability, T/C [20] 0.48% | viability, T/C [23] 2.77% | viability, T/C [24] 0.56%
7.39: pIC50 (second compound 0.316 µM)
inactive: viability, T/C (second compound 0.00316 µM, first compound 0.00316 µM) 81.3% | viability, T/C (second compound 0.00316 µM, first compound 0.01 µM) 79.2% | viability, T/C [1] 58.5% | viability, T/C [2] 23.8% | viability, T/C (second compound 0.01 µM, first compound 0.00316 µM) 94.9% | viability, T/C (second compound 0.01 µM, first compound 0.01 µM) 77.9% | viability, T/C [5] 51.3% | viability, T/C [6] 23.6% | viability, T/C (second compound 0.0316 µM, first compound 0.00316 µM) 93.3% | viability, T/C (second compound 0.0316 µM, first compound 0.01 µM) 73.3% | viability, T/C [9] 58.9% | viability, T/C [10] 20% | viability, T/C (second compound 0.1 µM, first compound 0.00316 µM) 94.6% | viability, T/C (second compound 0.1 µM, first compound 0.01 µM) 68.5% | viability, T/C [13] 62.3% | viability, T/C [14] 20.7% | viability, T/C (second compound 0.316 µM, first compound 0.00316 µM) 77.7% | viability, T/C (second compound 0.316 µM, first compound 0.01 µM) 74.7% | viability, T/C [17] 57.5% | viability, T/C [18] 22.5% | viability, T/C (second compound 1 µM, first compound 0.00316 µM) 88.8% | viability, T/C (second compound 1 µM, first compound 0.01 µM) 80.8% | viability, T/C [21] 62% | viability, T/C [22] 24.5%
7.44: pIC50 (second compound 0.0316 µM)
7.48: pIC50 (second compound 0.01 µM)
7.43: pIC50 (second compound 0.1 µM)
7.37: pIC50 (second compound 0.00316 µM)
